Experimental data reported in the supplement of paper PMC10307832.

Assays:
Test in all cases: relative viability (nuclei count vs DMSO), 5 days (fraction); higher = more cells survive
Bosutinib + Palbociclib = compound: COc1cc(Nc2c(C#N)cnc3cc(OCCCN4CCN(C)CC4)c(OC)cc23)c(Cl)cc1Cl [Bosutinib] + CC(=O)c1c(C)c2cnc(Nc3ccc(N4CCNCC4)cn3)nc2n(C2CCCC2)c1=O [Palbociclib] (partner 0.5 µM)
Method in brief: (§1)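 A single step with final 0.05% Triton X-100, 1% formaldehyde and 1 ug/ml Hoechst fixed the cells and stained nuclei 5 days after treatment. Lung cancer cell lines in 1536-well plates had been treated by pin tool the day after seeding with one drug alone or a fixed anchor-drug dose plus five library-drug doses (not always all listed) in √10 steps, and nuclei were counted on 4× images. Relative viability is the ratio of nuclei in treated wells to nuclei in vehicle wells, taken as the median of duplicate plates.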

Bosutinib + Bortezomib = compound: COc1cc(Nc2c(C#N)cnc3cc(OCCCN4CCN(C)CC4)c(OC)cc23)c(Cl)cc1Cl [Bosutinib] + CC(C)C[C@H](NC(=O)[C@H](Cc1ccccc1)NC(=O)c1cnccn1)B(O)O [Bortezomib] (partner 0.002 µM)
Method in brief: as §1

Bosutinib + Lapatinib = compound: COc1cc(Nc2c(C#N)cnc3cc(OCCCN4CCN(C)CC4)c(OC)cc23)c(Cl)cc1Cl [Bosutinib] + CS(=O)(=O)CCNCc1ccc(-c2ccc3ncnc(Nc4ccc(OCc5cccc(F)c5)c(Cl)c4)c3c2)o1 [Lapatinib] (partner 2 µM)
Method in brief: as §1

Bosutinib + Pictilisib = compound: COc1cc(Nc2c(C#N)cnc3cc(OCCCN4CCN(C)CC4)c(OC)cc23)c(Cl)cc1Cl [Bosutinib] + CS(=O)(=O)N1CCN(Cc2cc3nc(-c4cccc5[nH]ncc45)nc(N4CCOCC4)c3s2)CC1 [Pictilisib] (partner 1 µM)
Method in brief: as §1

Bosutinib + Pemetrexed = compound: COc1cc(Nc2c(C#N)cnc3cc(OCCCN4CCN(C)CC4)c(OC)cc23)c(Cl)cc1Cl [Bosutinib] + Nc1nc2[nH]cc(CCc3ccc(C(=O)N[C@@H](CCC(=O)O)C(=O)O)cc3)c2c(=O)[nH]1 [Pemetrexed] (partner 0.2 µM)
Method in brief: as §1

Cell Line | relative viability (Bosutinib + Palbociclib; first compound 0.01 µM) | relative viability (Bosutinib + Palbociclib; first compound 0.03162 µM) | relative viability (Bosutinib + Palbociclib; first compound 0.1 µM) | relative viability (Bosutinib + Palbociclib; first compound 1 µM) | relative viability (Bosutinib + Bortezomib; first compound 0.01 µM) | relative viability (Bosutinib + Bortezomib; first compound 0.03162 µM) | relative viability (Bosutinib + Bortezomib; first compound 0.1 µM) | relative viability (Bosutinib + Bortezomib; first compound 1 µM) | relative viability (Bosutinib + Lapatinib; first compound 0.01 µM) | relative viability (Bosutinib + Lapatinib; first compound 0.03162 µM) | relative viability (Bosutinib + Lapatinib; first compound 0.1 µM) | relative viability (Bosutinib + Lapatinib; first compound 1 µM) | relative viability (Bosutinib + Pictilisib; first compound 0.01 µM) | relative viability (Bosutinib + Pictilisib; first compound 0.03162 µM) | relative viability (Bosutinib + Pictilisib; first compound 0.1 µM) | relative viability (Bosutinib + Pictilisib; first compound 1 µM) | relative viability (Bosutinib + Pemetrexed; first compound 0.01 µM) | relative viability (Bosutinib + Pemetrexed; first compound 0.03162 µM) | relative viability (Bosutinib + Pemetrexed; first compound 0.1 µM) | relative viability (Bosutinib + Pemetrexed; first compound 1 µM)
LOU-NH91 | 0.529 | 0.541 | 0.541 | 0.563 | 0.469 | 0.487 | 0.514 | 0.578 | 0.759 | 0.824 | 0.791 | 0.723 | 0.492 | 0.524 | 0.504 | 0.468 | 0.394 | 0.395 | 0.378 | 0.4
LU99A | 0.45 | 0.409 | 0.44 | 0.421 | 1.16 | 1.17 | 1.33 | 0.938 | 1.05 | 1.01 | 0.976 | 0.876 | 0.324 | 0.321 | 0.375 | 0.345 | 0.2 | 0.208 | 0.193 | 0.182
LXF-289 | 0.634 | 0.614 | 0.607 | 0.669 | 1 | 1.03 | 1.02 | 0.991 | 0.881 | 0.912 | 0.913 | 0.929 | 0.815 | 0.865 | 0.818 | 0.778 | 0.908 | 1.04 | 0.985 | 0.88
NCI-H23 | 0.515 | 0.476 | 0.464 | 0.591 | 1 | 1.21 | 1.04 | 1.05 | 1.09 | 1.06 | 1.2 | 1.11 | 0.523 | 0.503 | 0.531 | 0.481 | 0.673 | 0.644 | 0.732 | 0.609
NCI-H322M | 0.523 | 0.452 | 0.492 | 0.414 | 1.23 | 1.14 | 1.35 | 1.22 | 0.51 | 0.589 | 0.623 | 0.573 | 0.469 | 0.495 | 0.525 | 0.485 | 0.579 | 0.594 | 0.6 | 0.521
NCI-H460 | 0.165 | 0.173 | 0.148 | 0.0817 | 1.17 | 1.04 | 1.01 | 0.91 | 1.03 | 0.875 | 0.874 | 0.833 | 0.38 | 0.353 | 0.321 | 0.299 | 0.0612 | 0.0671 | 0.0657 | 0.073
NCI-H520 | 0.206 | 0.227 | 0.208 | 0.169 | 0.771 | 0.419 | 0.52 | 0.396 | 1.01 | 0.86 | 0.855 | 0.639 | 0.309 | 0.279 | 0.288 | 0.281 | 0.661 | 0.666 | 0.627 | 0.605
